# From patent US12384776B2, “Compounds and uses thereof” (Foghorn Therapeutics Inc., priority 2019, dated 2025)
# Target: Nanoluciferase-BRD9 fusion protein (3×FLAG-NLuc-BRD9) in SYO-1 cells (Homo sapiens (Human), UniProt Q9H8M2)
# Assay: SYO1 BRD9 NanoLuc degradation assay
# Type: cell-based
# Details: SYO-1 cells expressing 3×FLAG-NLuc-BRD9, 6 hours incubation, top dose 1 μM
# Summary of the method: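 Degradation read as loss of NLuc signal after 6 h compound exposure (1 μM top final, 3-fold steps, 10 points, duplicates) in SYO-1 cells stably carrying 3×FLAG-NLuc-BRD9. Signal normalised between DMSO-treated cells and cells given 1 μM of a known BRD9 degrader.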
# Nanoluciferase-BRD9 fusion protein (3×FLAG-NLuc-BRD9) in SYO-1 cells, sequence (Q9H8M2 whole entry, the tested form may be a part): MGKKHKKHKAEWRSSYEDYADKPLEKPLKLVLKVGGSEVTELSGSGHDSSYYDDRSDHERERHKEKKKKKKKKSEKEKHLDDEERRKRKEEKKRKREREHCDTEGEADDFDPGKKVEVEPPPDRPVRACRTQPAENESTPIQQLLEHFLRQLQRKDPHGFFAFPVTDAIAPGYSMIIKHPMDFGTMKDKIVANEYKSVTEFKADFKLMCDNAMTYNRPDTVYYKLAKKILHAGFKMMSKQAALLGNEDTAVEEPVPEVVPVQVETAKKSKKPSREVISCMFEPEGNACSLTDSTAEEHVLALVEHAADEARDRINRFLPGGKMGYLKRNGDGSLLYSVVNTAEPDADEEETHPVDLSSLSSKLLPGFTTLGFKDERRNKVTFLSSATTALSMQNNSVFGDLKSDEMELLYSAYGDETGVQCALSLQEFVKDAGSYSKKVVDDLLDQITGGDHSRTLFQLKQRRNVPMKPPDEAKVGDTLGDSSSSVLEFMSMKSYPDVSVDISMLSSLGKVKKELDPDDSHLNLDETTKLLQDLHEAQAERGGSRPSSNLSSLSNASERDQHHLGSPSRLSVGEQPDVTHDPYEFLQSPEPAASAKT
row,Compound,IC50
1,COc1cc(-c2cn(C)c(=O)c3c2CCCC3)cc(OC)c1CN1CC(CN2CCC3(CC2)CN(c2ccc4c(c2)C(=O)N(C2CCC(=O)NC2=O)C4)C3)C1 (stereo not drawn) [Compound D301],< 10 nM
2,COc1cc(-c2cn(C)c(=O)c3c2COC3)cc(OC)c1CN1CC(CN2CCC3(CC2)CN(c2ccc4c(c2)C(=O)N(C2CCC(=O)NC2=O)C4)C3)C1 (stereo not drawn) [Compound D302],< 10 nM

# Same assay, conditions: SYO-1 cells, 6 hours, Table 6C
row,Compound,IC50
1,CNC(=O)N1CCc2c(-c3cc(OC)c(C4CN(c5ccc6c(c5)C(=O)N(C5CCC(=O)NC5=O)C6=O)C4)c(OC)c3)cn(C)c(=O)c2C1 (stereo not drawn) [Compound D303],< 10 nM
2,CNC(=O)N1CCc2c(-c3cc(OC)c(CN4CCC5(CN(c6ccc7c(c6)C(=O)N(C6CCC(=O)NC6=O)C7)C5)C(C)C4)c(OC)c3)cn(C)c(=O)c2C1 (stereo not drawn) [Compound D304],< 10 nM
3,CNC(=O)N1CCc2c(-c3cc(OC)c(CN4CCN(CCC5CCN(c6ccc7c(c6)C(=O)N(C6CCC(=O)N(C)C6=O)C7)CC5)CC4)c(OC)c3)cn(C)c(=O)c2C1 (stereo not drawn) [Compound D305],≥ 1000 nM
4,CNC(=O)N1CCc2c(-c3cc(OC)c(CN4CCC5(CN(c6ccc7c(c6)C(=O)N(C6CCC(=O)NC6=O)C7)C5)C(F)(F)C4)c(OC)c3)cn(C)c(=O)c2C1 (stereo not drawn) [Compound D306],< 10 nM
5,COc1cc(-c2cn(C)c(=O)c3c2CCN(C(=O)NCC(F)F)C3)cc(OC)c1CN(C)c1ccc2c(c1)C(=O)N(C1CCC(=O)NC1=O)C2 (stereo not drawn) [Compound D307],< 10 nM
6,CNC(=O)N1CCc2c(-c3cc(OC)c(CN4CCC5(CC4)CN(c4ccc6c(c4)C(=O)N(C4CCC(=O)NC4=O)C6)C5)c(OC)c3)cn(C)c(=O)c2C1 (stereo not drawn) [Compound D308],< 10 nM
7,CNC(=O)N1CCc2c(-c3cc(OC)c(CN4CCN(CCC5CCN(c6ccc7c(c6)C(=O)N(C6CCC(=O)NC6=O)C7)CC5)CC4(C)C)c(OC)c3)cn(C)c(=O)c2C1 (stereo not drawn) [Compound D309],< 10 nM
8,CNC(=O)N1CCc2c(-c3cc(OC)c(CN4CCN(CCC5CCN(c6ccc7c(c6)CN(C6CCC(=O)NC6=O)C7=O)CC5)CC45CC5)c(OC)c3)cn(C)c(=O)c2C1 (stereo not drawn) [Compound D310],< 10 nM
9,COc1cc(-c2cn(C)c(=O)c3c2CCN(C(=O)NCC(F)F)C3)cc(OC)c1CN1CCN(CCC2CCN(c3ccc4c(c3)CN(C3CCC(=O)NC3=O)C4=O)CC2)CC12CC2 (stereo not drawn) [Compound D311],< 10 nM
10,COc1cc(-c2cn(C)c(=O)c3c2CCN(C(=O)NCC(F)F)C3)cc(OC)c1CN1CCN(CCC2CCN(c3ccc4c(c3)C(=O)N(C3CCC(=O)NC3=O)C4)CC2)CC12CC2 (stereo not drawn) [Compound D312],< 10 nM
11,COc1cc(-c2cn(C)c(=O)c3c2CCN(C(=O)NCC(F)F)C3)cc(OC)c1CN1CCN(CCC2CCN(c3ccc4c(c3)C(=O)N(C3CCC(=O)NC3=O)C4)CC2)CC1(C)C (stereo not drawn) [Compound D313],≥ 1000 nM
12,CNC(=O)N1CCc2c(-c3cc(OC)c(CN4CCN(CCC5CCN(c6ccc7c(c6)C(=O)N(C6CCC(=O)NC6=O)C7)CC5)CC45CC5)c(OC)c3)cn(C)c(=O)c2C1 (stereo not drawn) [Compound D314],< 10 nM
13,CNC(=O)N1CCc2c(-c3cc(OC)c(CN4CCC(CN5CCC6(CN(c7ccc8c(c7)C(=O)N(C7CCC(=O)NC7=O)C8)C6)C(F)(F)C5)CC4)c(OC)c3)cn(C)c(=O)c2C1 (stereo not drawn) [Compound D315],< 10 nM
14,[2H]C([2H])([2H])n1cc(-c2cc(OC)c(CN3CCN(CCC4CCN(c5ccc6c(c5)C(=O)N(C5CCC(=O)NC5=O)C6)CC4)CC3)c(OC)c2)c2c(c1=O)CN(C(=O)NCC(F)F)CC2 (stereo not drawn) [Compound D316],≥ 1000 nM
15,[2H]C([2H])([2H])n1cc(-c2cc(OC)c(CN3CCN(CCC4CCN(c5ccc6c(c5)CN(C5CCC(=O)NC5=O)C6=O)CC4)CC3)c(OC)c2)c2c(c1=O)CN(C(=O)NCC(F)F)CC2 (stereo not drawn) [Compound D317],< 10 nM
16,[2H]C([2H])([2H])n1cc(-c2cc(OC)c(CN3[C@H](C)CN(CCC4CCN(c5ccc6c(c5)CN(C5CCC(=O)NC5=O)C6=O)CC4)C[C@H]3C)c(OC)c2)c2c(c1=O)CN(C(=O)NC)CC2 (stereo partly drawn) [Compound D318],< 10 nM
17,[2H]C([2H])([2H])n1cc(-c2cc(OC)c(CN3[C@H](C)CN(CCC4CCN(c5ccc6c(c5)C(=O)N(C5CCC(=O)NC5=O)C6)CC4)C[C@H]3C)c(OC)c2)c2c(c1=O)CN(C(=O)NC)CC2 (stereo partly drawn) [Compound D319],< 10 nM
18,COc1cc(-c2cn(C)c(=O)c3c2CCN(C(=O)NCC(F)F)C3)cc(OC)c1CN1CCN(CCC2CCN(c3ccc4c(c3)CN(C3CCC(=O)NC3=O)C4=O)CC2)CC1(C)C (stereo not drawn) [Compound D320],< 10 nM
19,CNC(=O)N1CCc2c(-c3cc(OC)c(CN4CCN(CCC5CCN(c6ccc7c(c6)CN(C6CCC(=O)NC6=O)C7=O)CC5)CC45CCC5)c(OC)c3)cn(C)c(=O)c2C1 (stereo not drawn) [Compound D321],< 10 nM
20,COc1cc(-c2cn(C)c(=O)c3c2CCN(C(=O)NCC(F)F)C3)cc(OC)c1CN1CCN(CCC2CCN(c3ccc4c(c3)CN(C3CCC(=O)NC3=O)C4=O)CC2)CC12CCC2 (stereo not drawn) [Compound D322],< 10 nM
21,[2H]C([2H])([2H])NC(=O)N1CCc2c(-c3cc(OC)c(CN4[C@H](C)CN(CCC5CCN(c6ccc7c(c6)C(=O)N(C6CCC(=O)NC6=O)C7)CC5)C[C@H]4C)c(OC)c3)cn(C)c(=O)c2C1 (stereo partly drawn) [Compound D323],< 10 nM
22,[2H]C([2H])([2H])NC(=O)N1CCc2c(-c3cc(OC)c(CN4[C@H](C)CN(CCC5CCN(c6ccc7c(c6)CN(C6CCC(=O)NC6=O)C7=O)CC5)C[C@H]4C)c(OC)c3)cn(C)c(=O)c2C1 (stereo partly drawn) [Compound D324],< 10 nM

row,Compound,IC50
1,CNC(=O)N1CCc2c(-c3cc(OC)c(CN4[C@H](C)CN(CCC5CCN(c6ccc7c(c6)CN(C6CCC(=O)NC6=O)C7=O)CC5)C[C@H]4C)c(OC)c3)cn(C)c(=O)c2C1 (stereo partly drawn) [Compound D325],< 10 nM
2,CNC(=O)N1CCc2c(-c3cc(OC)c(CN4[C@H](C)CN(CCC5CCN(c6ccc7c(c6)C(=O)N(C6CCC(=O)NC6=O)C7)CC5)C[C@H]4C)c(OC)c3)cn(C)c(=O)c2C1 (stereo partly drawn) [Compound D326],< 10 nM
3,CCc1cc(-c2cn(C)c(=O)c3c2CCN(C(=O)NC)C3)cc(OC)c1CN1CCN(CCC2CCN(c3ccc4c(c3)C(=O)N(C3CCC(=O)NC3=O)C4)CC2)CC1 (stereo not drawn) [Compound D327],< 10 nM
4,[2H]C([2H])([2H])n1cc(-c2cc(OC)c(CN3CCN(CCC4CCN(c5ccc6c(c5)C(=O)N(C5CCC(=O)NC5=O)C6=O)CC4)CC3)c(OC)c2)c2c(c1=O)CN(C(=O)NCC(F)F)CC2 (stereo not drawn) [Compound D328],≥ 1000 nM
5,CNC(=O)N1CCc2c(-c3cc(OC)c(CN4CCN(CCC5CCN(c6ccc7c(c6)CN(C6CCC(=O)NC6=O)C7=O)CC5)CC4COC)c(OC)c3)cn(C)c(=O)c2C1 (stereo not drawn) [Compound D329],< 10 nM
6,CNC(=O)N1CCc2c(-c3cc(OC)c(CN4CCN(CCC5CCN(c6ccc7c(c6)CN(C6CCC(=O)NC6=O)C7=O)CC5(F)F)CC4)c(OC)c3)cn(C)c(=O)c2C1 (stereo not drawn) [Compound D330],< 10 nM
7,CNC(=O)N1CCc2c(-c3cc(OC)c(C4CN(c5ccc6c(c5)CN(C5CCC(=O)NC5=O)C6=O)C4)c(OC)c3)cn(C)c(=O)c2C1 (stereo not drawn) [Compound D331],≥ 10 nM
8,CNC(=O)N1CCc2c(-c3cc(OC)c(CN4CCN(CCC5CCN(c6ccc7c(c6)C(=O)N(C6CCC(=O)NC6=O)C7)CC5)CC45CCC5)c(OC)c3)cn(C)c(=O)c2C1 (stereo not drawn) [Compound D332],< 10 nM
9,COc1cc(-c2cn(C)c(=O)c3c2CCN(C(=O)NCC(F)F)C3)cc(OC)c1CN1CCN(CCC2CCN(c3ccc4c(c3)C(=O)N(C3CCC(=O)NC3=O)C4)CC2)CC12CCC2 (stereo not drawn) [Compound D333],< 10 nM
10,CNC(=O)N1CCc2c(-c3cc(OC)c(CN4CC(C(N5CCC6(CC5)CN(c5ccc7c(c5)C(=O)N(C5CCC(=O)NC5=O)C7)C6)C(F)(F)F)C4)c(OC)c3)cn(C)c(=O)c2C1 (stereo not drawn) [Compound D334],< 10 nM
11,COc1cc(-c2cn(C)c(=O)c3c2CCN(C(=O)NCC(F)F)C3)cc(OC)c1CN1CCC(CN2CCC3(CC2)CN(c2ccc4c(c2)C(=O)N(C2CCC(=O)NC2=O)C4)C3)CC1 (stereo not drawn) [Compound D336],< 10 nM
12,CNC(=O)N1CCc2c(-c3cc(OC)c(CN4CCN(CCC5CCN(c6ccc7c(c6)C(=O)N(C6CCC(=O)NC6=O)C7=O)CC5)CC4)c(OC)c3)c(C)n(C)c(=O)c2C1 (stereo not drawn) [Compound D337],≥ 1000 nM
13,CNC(=O)N1CCc2c(-c3cc(OC)c(CN4CCC(CN5CCC6(CC5)CC(Oc5ccc7c(c5)C(=O)N(C5CCC(=O)NC5=O)C7=O)C6)CC4)c(OC)c3)cn(C(F)F)c(=O)c2C1 (stereo not drawn) [Compound D338],< 10 nM
14,CNC(=O)N1CCc2c(-c3cc(OC)c(CN4CCC(CN5CCC6(CN(c7ccc8c(c7)CN(C7CCC(=O)NC7=O)C8=O)C6)C(F)(F)C5)CC4)c(OC)c3)cn(C)c(=O)c2C1 (stereo not drawn) [Compound D339],< 10 nM
15,CNC(=O)N1CCc2c(-c3cc(OC)c(CN4CCN(CCC5CCN(c6ccc7c(c6)C(=O)N(C6CCC(=O)NC6=O)C7)CC5)CC4COC)c(OC)c3)cn(C)c(=O)c2C1 (stereo not drawn) [Compound D340],< 10 nM
16,[2H]C([2H])([2H])NC(=O)N1CCc2c(-c3cc(OC)c(CN4CCN(CCC5CCN(c6ccc7c(c6)C(=O)N(C6CCC(=O)NC6=O)C7)CC5)CC4)c(OC)c3)cn(C)c(=O)c2C1 (stereo not drawn) [Compound D341],< 10 nM
17,CNC(=O)N1CCc2c(-c3cc(OC)c(CN4CCC(CCN5C(C)CC(c6ccc7c(c6)C(=O)N(C6CCC(=O)NC6=O)C7=O)CC5C)CC4)c(OC)c3)cn(C)c(=O)c2C1 (stereo not drawn) [Compound D342],< 10 nM
18,CNC(=O)N1CCc2c(-c3cc(OC)c(CN4CCC(C(N5CCC6(CC5)CC(Oc5ccc7c(c5)C(=O)N(C5CCC(=O)NC5=O)C7=O)C6)C(F)(F)F)CC4)c(OC)c3)cn(C)c(=O)c2C1 (stereo not drawn) [Compound D343],≥ 1000 nM
19,COc1cc(-c2cn(C)c(=O)c3c2CCN(C(=O)NCC(F)F)C3)cc(OC)c1CN1CCN(CCC2CCN(c3ccc4c(c3)C(=O)N(C3CCC(=O)NC3=O)C4)CC2)CC1 (stereo not drawn) [Compound D344],< 10 nM
20,CNC(=O)N1CCc2c(-c3cc(OC)c(CN4CCC(C(N5CCC6(CC5)CC(Oc5ccc7c(c5)C(=O)N(C5CCC(=O)NC5=O)C7)C6)C(F)(F)F)CC4)c(OC)c3)cn(C)c(=O)c2C1 (stereo not drawn) [Compound D345],< 10 nM
21,CNC(=O)N1CCc2c(-c3cc(OC)c(CN4CCN(CCC5CCN(c6ccc7c(c6)C(=O)N(C6CCC(=O)NC6=O)C7)CC5(F)F)CC4)c(OC)c3)cn(C)c(=O)c2C1 (stereo not drawn) [Compound D346],< 10 nM
